In patent US11384060B2, “Amide compounds and use thereof” (ALPHALA CO., LTD., priority 2017, dated 2022):

Legend:
[1] = target: T1, glucagon receptor (GCGR) (Homo sapiens, UniProt P47871); assay: I125-glucagon binding assay (competition, GCGR membrane fractions); conditions: competition with I125-glucagon 0.0625 nM, membrane fractions of GCGR overexpressed CHO-K1 cells
T1 construct: expressed in transfected cells; host or cells: CHO-K1 cells overexpressing GCGR (membrane fractions)
Summary of the method: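 Membranes from CHO-K1 cells overexpressing GCGR, 7.5 μg/well in 50 mM Tris pH 7.4 with 0.5% BSA, were preincubated 5 min with serially diluted compounds, then given 0.0625 nM final I^125-glucagon for 30 min at 25° C. Bound label was filtered on PEI-coated GF/B and counted; IC50 by non-linear regression.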

[2] = target: T2, glucagon receptor (GCGR) overexpressed CHO-K1 cells or human primary hepatocytes (Homo sapiens, UniProt P47871); assay: Glucagon cAMP inhibition assay (Cisbio cAMP Dynamic 2 HTRF); format: cell-based; conditions: inhibition of glucagon (EC50 concentration) induced cAMP production
T2 construct: expressed in transfected cells; host or cells: GCGR overexpressed CHO-K1 cells or human primary hepatocytes (endogenous receptor)
Summary of the method: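 GCGR-overexpressing CHO-K1 cells or human primary hepatocytes in HBSS with 0.1% BSA and 800 nM IBMX, pre-incubated 30 min with serially diluted compounds (1% DMSO final), then stimulated 30 min at room temperature with glucagon at its EC50. cAMP measured by HTRF after 60 min lysis; IC50 by non-linear regression.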

T1 sequence (P47871 26-477): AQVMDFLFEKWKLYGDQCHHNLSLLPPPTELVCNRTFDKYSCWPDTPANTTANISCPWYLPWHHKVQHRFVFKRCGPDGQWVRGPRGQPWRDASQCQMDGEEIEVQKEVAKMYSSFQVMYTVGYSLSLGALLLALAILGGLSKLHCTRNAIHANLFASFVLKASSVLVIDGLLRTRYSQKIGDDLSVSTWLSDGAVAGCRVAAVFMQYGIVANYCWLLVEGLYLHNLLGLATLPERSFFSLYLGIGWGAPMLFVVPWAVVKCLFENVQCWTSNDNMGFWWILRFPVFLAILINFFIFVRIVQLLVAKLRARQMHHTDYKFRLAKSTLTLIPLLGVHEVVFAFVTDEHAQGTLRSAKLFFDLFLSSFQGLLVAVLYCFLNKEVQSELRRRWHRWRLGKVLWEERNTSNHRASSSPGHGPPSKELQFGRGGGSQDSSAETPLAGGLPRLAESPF
T2 sequence (P47871 26-477): as above

Compound | IC50 [1] [µM] | IC50 cAMP [2] [µM]
CC[C@H](C)[C@@H](CSc1ccc(-c2cc3ccccc3o2)cc1)Nc1ccc(C(=O)NCCC(=O)O)cc1 [Compound 5-3, 3-(4-(((2S,3S)-1-((4-(benzofuran-2-yl)phenyl)thio)-3-methylpentan-2-yl)amino)benzamido)propanoic Acid] | 0.4 | 0.9469
CC(C)[C@@H](COc1ccc(-c2cc3ccccc3o2)cc1)N(C)c1ccc(C(=O)NCCC(=O)O)cc1 [Compound 6-1, (S)-3-(4-((1-(4-(benzofuran-2-yl)phenoxy)-3-methylbutan-2-yl)(methyl)amino)benzamido)propanoic Acid] | 0.391 | 0.2042
CCN(c1ccc(C(=O)NCCC(=O)O)cc1)[C@H](COc1ccc(-c2cc3ccccc3o2)cc1)C(C)C [Compound 6-2, (S)-3-(4-((1-(4-(benzofuran-2-yl)phenoxy)-3-methylbutan-2-yl)(ethyl)amino)benzamido)propanoic Acid] | 0.645 | 0.1643
CCOC[C@@H](COc1ccc(-c2cc3ccccc3o2)cc1)Nc1ccc(C(=O)NCCC(=O)O)cc1 [Compound 6-3, (S)-3-(4-((1-(4-(benzofuran-2-yl)phenoxy)-3-ethoxypropan-2-yl)amino)benzamido)propanoic Acid] | 0.479 | 3.859
CC(C)[C@@H](COc1cc(F)c(-c2cc3ccccc3o2)c(F)c1)Nc1ccc(C(=O)NCCC(=O)O)cc1 [Compound 7-1, (S)-3-(4-((1-(4-(benzofuran-2-yl)-3,5-difluorophenoxy)-3-methylbutan-2-yl)amino)benzamido)propanoic Acid] | 0.093 | 0.495
CC(C)[C@@H](COc1cc(F)c(-c2ccc(C(F)(F)F)cc2Cl)c(F)c1)Nc1ccc(C(=O)NCCC(=O)O)cc1 [Compound 7-2, (S)-3-(4-((1-((2′-chloro-2,6-difluoro-4′-(trifluoromethyl)-[1,1′-biphenyl]-4-yl)oxy)-3-methylbutan-2-yl)amino)benzamido)propanoic Acid] | 0.177 | 0.201
CC(C)[C@@H](COc1cc(F)c(-c2ccc(C(F)(F)F)cc2)c(F)c1)Nc1ccc(C(=O)NCCC(=O)O)cc1 [Compound 7-3, (S)-3-(4-((1-((2,6-difluoro-4′-(trifluoromethyl)-[1,1′-biphenyl]-4-yl)oxy)-3-methylbutan-2-yl)amino)benzamido)propanoic Acid] | 0.107 | 0.14
CC(C)[C@@H](COc1cc(F)c(-c2ccc(C(F)(F)F)cc2F)c(F)c1)Nc1ccc(C(=O)NCCC(=O)O)cc1 [Compound 7-4, (S)-3-(4-((3-methyl-1-((2,2′,6-trifluoro-4′-(trifluoromethyl)-[1,1′-biphenyl]-4-yl)oxy)butan-2-yl)amino)benzamido)propanoic Acid] | 0.182 | 0.165
CC(C)C[C@@H](COc1cc(F)c(-c2ccc(C(F)(F)F)cc2Cl)c(F)c1)Nc1ccc(C(=O)NCCC(=O)O)cc1 [Compound 7-5, (S)-3-(4-((1-((2′-chloro-2,6-difluoro-4′-(trifluoromethyl)-[1,1-biphenyl]-4-yl)oxy)-4-methylpentan-2-yl)amino)benzamido)propanoic Acid] | 0.075 | 0.811
CC(C)C[C@@H](COc1cc(F)c(-c2ccc(C(F)(F)F)cc2)c(F)c1)Nc1ccc(C(=O)NCCC(=O)O)cc1 [Compound 7-6, (S)-3-(4-((1-((2,6-difluoro-4′-(trifluoromethyl)-[1,1′-biphenyl]-4-yl)oxy)-4-methylpentan-2-yl)amino)benzamido)propanoic Acid] | 0.144 | 0.371
CC(C)C[C@@H](COc1cc(F)c(-c2ccc(C(F)(F)F)cc2F)c(F)c1)Nc1ccc(C(=O)NCCC(=O)O)cc1 [Compound 7-7, (S)-3-(4-((4-methyl-1-((2,2′,6-trifluoro-4′-(trifluoromethyl)-[1,1′-biphenyl]-4-yl)oxy)pentan-2-yl)amino)benzamido)propanoic Acid] | 0.307 | 0.689
CC(C)C[C@@H](COc1cc(F)c(-c2ccc(Cl)cc2Cl)c(F)c1)Nc1ccc(C(=O)NCCC(=O)O)cc1 [Compound 7-8, (S)-3-(4-((1-((2′,4′-dichloro-2,6-difluoro-[1,1′-biphenyl]-4-yl)oxy)-4-methylpentan-2-yl)amino)benzamido)propanoic Acid] | 0.049 | 0.329
CC(C)C[C@@H](COc1cc(F)c(-c2cc(Cl)cc(Cl)c2)c(F)c1)Nc1ccc(C(=O)NCCC(=O)O)cc1 [Compound 7-9, (S)-3-(4-((1-((3′,5′-dichloro-2,6-difluoro-[1,1′-biphenyl]-4-yl)oxy)-4-methylpentan-2-yl)amino)benzamido)propanoic Acid] | 0.262 | 0.816
CC(C)C[C@@H](COc1cc(F)c(-c2cc3ccccc3o2)c(F)c1)Nc1ccc(C(=O)NCCC(=O)O)cc1 [Compound 7-10, (S)-3-(4-((1-(4-(benzofuran-2-yl)-3,5-difluorophenoxy)-4-methylpentan-2-yl)amino)benzamido)propanoic Acid] | 0.145 | 0.7309
CC(C)[C@@H](COc1cc(F)c(-c2ccc(Cl)cc2Cl)c(F)c1)Nc1ccc(C(=O)NCCC(=O)O)cc1 [Compound 7-11, (S)-3-(4-((1-((2′,4′-dichloro-2,6-difluoro-[1,1′-biphenyl]-4-yl)oxy)-3-methylbutan-2-yl)amino)benzamido)propanoic Acid] | 0.074 | 0.209
CC(C)[C@@H](COc1ccc(-c2ccc(C(F)(F)F)cc2F)c(F)c1)Nc1ccc(C(=O)NCCC(=O)O)cc1 [Compound 8-1, (S)-3-(4-((1-((2,2′-difluoro-4′-(trifluoromethyl)-[1,1′-biphenyl]-4-yl)oxy)-3-methylbutan-2-yl)amino)benzamido)propanoic Acid] | 0.112 | 0.0619
CC(C)[C@@H](COc1ccc(-c2ccc(C(F)(F)F)cc2F)c(F)c1)Nc1ccc(C(=O)NCCS(=O)(=O)O)cc1 [Compound 8-2, (S)-2-(4-((1-((2,2′-difluoro-4′-(trifluoromethyl)-[1,1′-biphenyl]-4-yl)oxy)-3-methylbutan-2-yl)amino)benzamido)ethane-1-sulfonic Acid] | 1.71 | 12.144
CC(C)[C@@H](COc1ccc(-c2cc3ccccc3o2)c(F)c1)Nc1ccc(C(=O)NCCC(=O)O)cc1 [Compound 8-3, (S)-3-(4-((1-(4-(benzofuran-2-yl)-3-fluorophenoxy)-3-methylbutan-2-yl)amino)benzamido)propanoic Acid] | 0.083 | 0.0844
CC(C)[C@@H](COc1ccc(-c2cc3ccccc3o2)c(F)c1)Nc1ccc(C(=O)NCCS(=O)(=O)O)cc1 [Compound 8-4, (S)-2-(4-((1-(4-(benzofuran-2-yl)-3-fluorophenoxy)-3-methylbutan-2-yl)amino)benzamido)ethane-1-sulfonic Acid] | 1.72 | 10.292
CC(C)[C@@H](COc1ccc(-c2ccc(C(F)(F)F)cc2Cl)c(F)c1)Nc1ccc(C(=O)NCCC(=O)O)cc1 [Compound 8-5, (S)-3-(4-((1-((2′-chloro-2-fluoro-4′-(trifluoromethyl)-[1,1′-biphenyl]-4-yl)oxy)-3-methylbutan-2-yl)amino)benzamido)propanoic Acid] | 0.075 | 0.085
CC(C)C[C@@H](COc1ccc(-c2ccc(C(F)(F)F)cc2F)c(F)c1)Nc1ccc(C(=O)NCCC(=O)O)cc1 [Compound 8-6, (S)-3-(4-((1-((2,2′-difluoro-4′-(trifluoromethyl)-[1,1′-biphenyl]-4-yl)oxy)-4-methylpentan-2-yl)amino)benzamido)propanoic Acid] | 0.172 | 0.428
CC[C@H](C)[C@@H](COc1ccc(-c2cc3ccccc3o2)c(F)c1)Nc1ccc(C(=O)NCCC(=O)O)cc1 [Compound 8-7, 3-(4-(((2S,3S)-1-(4-(benzofuran-2-yl)-3-fluorophenoxy)-3-methylpentan-2-yl)amino)benzamido)propanoic Acid] | 0.186 | 0.129
CC[C@H](C)[C@@H](COc1ccc(-c2ccc(C(F)(F)F)cc2Cl)c(F)c1)Nc1ccc(C(=O)NCCC(=O)O)cc1 [Compound 8-8, 3-(4-(((2S,3S)-1-((2′-chloro-2-fluoro-4′-(trifluoromethyl)-[1,1′-biphenyl]-4-yl)oxy)-3-methylpentan-2-yl)amino)benzamido)propanoic Acid] | 0.277 | 0.5
CC(C)[C@@H](COc1ccc(-c2ccc(Cl)cc2Cl)c(F)c1)Nc1ccc(C(=O)NCCC(=O)O)cc1 [Compound 8-9, (S)-3-(4-((1-((2′,4′-dichloro-2-fluoro-[1,1′-biphenyl]-4-yl)oxy)-3-methylbutan-2-yl)amino)benzamido)propanoic Acid] | 0.145 | 0.365
CC[C@H](C)[C@@H](COc1ccc(-c2ccc(C(F)(F)F)cc2F)c(F)c1)Nc1ccc(C(=O)NCCC(=O)O)cc1 [Compound 8-10, 3-(4-(((2S,3S)-1-((2,2′-difluoro-4′-(trifluoromethyl)-[1,1′-biphenyl]-4-yl)oxy)-3-methylpentan-2-yl)amino)benzamido)propanoic Acid] | 0.186 | 0.3532
